Data reported in US5846516A, “Perfluoroalkylated amphiphilic phosphorus compounds: preparation and biomedical applications” (Alliance Pharmaceutial Corp., priority 1992, dated 1998).
Read-outs that look alike come from different tables or passages of the source.

Key:
[1] = Surface activity of aqueous solutions: surface (γs) and interfacial (γi) tensions; assay type: physicochemical; conditions: 20° C., ±0.3 mNm^-1
From the text: The compounds described in this invention are very efficient surface agents, greatly lowering the surface (γs) and interfacial (γi) tensions between water and a fluorocarbon when added to water. […], γs goes from 73 (pure water) to 19.7-33.8 mNm^-1, and γi [water/perfluorodecalin (FDC) or perfluorooctyl bromide (PFOB) ] goes from 56 and 51 (in the absence of surfactant) to 5.1-8.9 mNm^-1 and 4.7-10.5 mNm^-1 respectively, as illustrated by the examples assembled in the table below. These compounds are also characterized by low values of critical micellar concentration: (CMC:from 1.10^-6 to 1.7.10^-3 M).
(§1) Surface Activity Data of Aqueous Solutions

[2] = Growth and viability of Namalva cell cultures; assay type: cell-based; conditions: human; for activity: namalva cells; for viability: Namalva cells
[3] = test system: mice; assay: Toxicity in mice after intravenous injection (LD50, survival); assay type: in vivo; conditions: for Toxicity in mice, Survival: i.v.
Protocol: (§2) Compound 22 is non-hemolytic at a 50 g/L concentration, and its LD50 is higher than 2000 mg/kg in intravenous injection into mice. […] Furthermore, these derivatives show a higher i.v. tolerance than the single-chain compounds disclosed in WO 90/15807 C (25 ≤LD50 ≤125 mg/kg bw).

[4] = as above; assay type: in vivo; conditions: mouse, in vivo; intravenous injection into mice
Protocol: as §2

[5] = Critical micellar concentration (CMC); assay type: physicochemical; conditions: aqueous solutions, 20° C.
From the text: The compounds described in this invention are very efficient surface agents, greatly lowering the surface (γs) and interfacial (γi) tensions between water and a fluorocarbon when added to water. Thus at 1 g/L in water, γs goes from 73 (pure water) to 19.7-33.8 mNm^-1, and γi [water/perfluorodecalin (FDC) or perfluorooctyl bromide (PFOB) ] goes from 56 and 51 (in the absence of surfactant) to 5.1-8.9 mNm^-1 and 4.7-10.5 mNm^-1 respectively, as illustrated by the examples assembled in the table below. These compounds are also characterized by low values of critical micellar concentration: (CMC:from 1.10^-6 to 1.7.10^-3 M).
as §1

[6] = Dispersibility in water at 25° C.
[7] = test system: human red blood cells; assay: Hemolysis of red blood cells; assay type: cell-based
Protocol: as §2
(§3) *solution added to an equal volume of a suspension, at 1% concentration o
(§4) washed red blood cells in saline.

[8] = Hemolysis of red blood cells; assay type: cell-based, human; conditions: human, read-out: Hemolysis, % hem.
Protocol: as §2, §3, §4

[9] = assay type: physicochemical; conditions: 90% w/v PFOB
Protocol: (§5) The products described in this invention, used as surfactants or co-surfactants, allow the preparation and stabilization of fluorocarbon emulsions. The emulsions were prepared by sonification (BRANSON B30 sonicator) (for 50% w/v of fluorocarbon) or by high-pressure microfluidization ((MICROFLUIDICS M 110)) (for more concentrated fluorocarbon emulsions). The ageing of these emulsions at 40° C. (accelerated ageing conditions) was followed by measuring the average size of the particles by a photosedimentation method (HORIBA CAPA 500) and compared with reference emulsions prepared with natural egg-yolk lecithins or poloxamers, for example Pluronic F-68.
To prepare 40 mL of a 90% w/v PFOB emulsion, surfactant 7b (400 mg) was first dispersed in 19.6 mL of a phosphate buffer with an Ultra Turrax. PFOB (36 g) was then added slowly and the whole was mixed for 10 min at 24000 revolutions/min. The resulting pre-emulsion was transferred into a microfluidizer and emulsified for 1 min at 800-1000 bar.
This emulsion was prepared as for example 28 with 200 mg of 7b and 1.4 g of EYP for 35 g of PFOB.

[10] = Ageing of sonicated perfluorodecalin (FDC 50% w/v) emulsions at 40° C., average particle size; assay type: physicochemical; conditions: FIG. 5; 50% w/v PFD sterilized emulsions, 3% surfactant
Protocol: as §5
To prepare 12 mL of an emulsion of FDC (50% w/v) with 3% w/v of 7b, the surfactant (360 mg) was first sonicated in a rosette cell at 0° C., in 8.55 mL of water. Next, the FDC (6 g) was added and the whole is sonicated, until optimal average particle size and size distribution are obtained. The emulsion was then divided into aliquots, stocked under inert atmosphere, sterilized for 8 min at 121° C. in an autoclave, then stored at 40° C. and monitored over time.
The same process but with a mixture of surfactants composed of 120 mg of 7b and 240 mg of natural egg-yolk lecithins (EYP) gave FDC emulsion with the following average particle sizes: 0.15 μm on preparation, 0.21 μm after sterilization and 0.32 μm after 30 days at 40° C. […]

O=P(O)(OCCC(F)(F)C(F)(F)C(F)(F)C(F)(F)C(F)(F)C(F)(F)F)OC[C@H]1OC(O)[C@H](O)[C@@H](O)[C@@H]1O (stereo partly drawn) [Compound 7a, [2-(F-hexyl)ethyl](6-D-glucosyl)(sodium)phosphate]
γi /FDC (interfacial tension water/perfluorodecalin) ([1]; 1 g/L in water): 5.6 mNm^-1 | γi /PFOB (interfacial tension water/perfluorooctyl bromide) ([1]; 1 g/L in water): 4.7 mNm^-1 | γs (surface tension) ([1]; 1 g/L in water): 19.7 mNm^-1 | activity ([2]; 0.1 g/L): 82% | activity ([2]; 1 g/L): 51% | viability ([2]; 1 g/L): 97% | Toxicity in mice, Survival ([3]; dose 750 (mg/kg)): 4/10 | LD50 [4]: ~750 mg/kg | CMC [5]: 1.55 mM | solubility [6]: 350 mg/mL | hemolytic activity (in words) ([7]; even at 100 g/L): no hemolytic activity | hemolysis ([8]; 100 g/L, solution added to an equal volume of 1% washed red blood cells in saline): 0%

O=P(O)(OCCC(F)(F)C(F)(F)C(F)(F)C(F)(F)C(F)(F)C(F)(F)C(F)(F)C(F)(F)F)OC[C@H]1OC(O)[C@H](O)[C@@H](O)[C@@H]1O (stereo partly drawn) [Compound 7b, [2-(F-octyl)ethyl](6-D-glucosyl)(sodium)phosphate]
stability of PFOB emulsion vs. EYP emulsion (in words) ([9]; FIG. 6, 1% w/v 7b vs 4% EYP, 40° C.): more stable than an emulsion containing 4% of EYP | co-surfactant effect with EYP on particle size and stabilization (in words) ([9]; FIG. 7, 1/8th of 4% EYP replaced by 7b): significantly reduces the average particle size and causes strong stabilization | activity ([2]; 1 g/L): 76% | viability ([2]; 1 g/L): 104% | Toxicity in mice, Survival ([3]; dose 125 (mg/kg)): 10/10 | ageing at 40° C. of perfluorodecalin emulsions (in words) [10]: superimposable | hemolytic effect (in words) ([7]; dispersion at 30 g/L in 20 g/L Pluronic F-68): no hemolytic effect | hemolysis ([8]; 30 g/L, dispersed in a 20 g/L Pluronic F68 solution, added to an equal volume of 1% washed red blood cells in saline): 0%

O=P(O)(OCCC(F)(F)C(F)(F)C(F)(F)C(F)(F)C(F)(F)C(F)(F)C(F)(F)C(F)(F)F)O[C@H]1[C@H](O)[C@@H](CO)OC(O)[C@@H]1O (stereo partly drawn) [Compound 8b, [2-(F-octyl)ethyl] (3-D-glucosyl)(sodium) phosphate]
γi /FDC (interfacial tension water/perfluorodecalin) ([1]; 1 g/L in water): 5.6 mNm^-1 | γi /PFOB (interfacial tension water/perfluorooctyl bromide) ([1]; 1 g/L in water): 8.3 mNm^-1 | γs (surface tension) ([1]; 1 g/L in water): 27.5 mNm^-1 | CMC [5]: 1.68 mM | ageing at 40° C. of perfluorodecalin emulsions (in words) [10]: superimposable | solubility [6]: 250 mg/mL

[2-(F-octyl)ethyl] bis [polyethylene glycol methyl ether] phosphate triester 20, n=7 [Compound 20]
γi /FDC (interfacial tension water/perfluorodecalin) ([1]; 0.1 g/L (0.083 mM) in water): 13.1 mNm^-1 | γi /PFOB (interfacial tension water/perfluorooctyl bromide) ([1]; 0.1 g/L (0.083 mM) in water): 9.2 mNm^-1 | γs (surface tension) ([1]; 0.1 g/L (0.083 mM) in water): 33.8 mNm^-1 | Dispersibility at 25° C., g/L in water: > 100 g/L | CMC [5]: 0.025 mM

[5-(F-octyl)pentyl] bis [polyethylene glycol methyl ether] phosphate triester 21, n=7 [Compound 21]
γi /FDC (interfacial tension water/perfluorodecalin) ([1]; 0.01 g/L (0.008 mM) in water): 9.6 mNm^-1 | γi /PFOB (interfacial tension water/perfluorooctyl bromide) ([1]; 0.01 g/L (0.008 mM) in water): 7.5 mNm^-1 | γs (surface tension) ([1]; 0.01 g/L (0.008 mM) in water): 29.6 mNm^-1 | Dispersibility at 25° C., g/L in water: > 100 g/L | Toxicity in mice, Survival ([3]; dose 500 (mg/kg)): 10/10 | Toxicity in mice, Survival ([3]; dose 1000 (mg/kg)): 3/10 | CMC [5]: 0.001 mM

[5-(F-octyl)pentyl] bis [polyethylene glycol methyl ether] phosphate triester 22, n=16 [Compound 22]
Toxicity in mice, Survival ([3]; dose 2000 (mg/kg)): 10/10 | LD50 ([3]; intravenous injection into mice): higher than 2000 mg/kg | in vivo (i.v.) tolerance (in words) ([3]; intravenous, mice): in vivo tolerance increases from 21 to 22 | hemolytic activity (in words) ([7]; 50 g/L): non-hemolytic
